According to patent US12421242B2, “Substituted tetrahydropyrrolo-pyridinone compounds and their use in treating medical conditions” (Karuna Therapeutics, Inc., priority 2022, dated 2025):

Key:
hM4 receptors = target: T1, hM4 receptors (Homo sapiens, UniProt P08173); assay: Human M4 PAM pERK assay; assay type: cell-based; conditions: PAM mode
T1 construct: expressed in transfected cells; host or cells: CHO cells
T1 sequence (P08173 1-479): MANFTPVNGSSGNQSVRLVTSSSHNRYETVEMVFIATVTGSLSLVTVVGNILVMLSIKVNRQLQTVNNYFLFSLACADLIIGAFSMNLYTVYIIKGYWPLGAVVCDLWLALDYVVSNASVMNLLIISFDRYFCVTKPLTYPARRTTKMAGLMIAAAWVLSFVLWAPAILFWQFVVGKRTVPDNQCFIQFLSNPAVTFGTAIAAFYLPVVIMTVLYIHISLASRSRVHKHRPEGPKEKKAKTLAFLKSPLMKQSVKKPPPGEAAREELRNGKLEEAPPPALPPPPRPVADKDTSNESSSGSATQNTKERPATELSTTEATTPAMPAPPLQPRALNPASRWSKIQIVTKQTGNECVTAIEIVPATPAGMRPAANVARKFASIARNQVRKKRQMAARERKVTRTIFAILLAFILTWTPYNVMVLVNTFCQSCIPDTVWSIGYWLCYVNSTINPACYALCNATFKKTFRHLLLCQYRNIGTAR
Description: (§1) Chinese hamster ovary (CHO) cells expressing either hM4 or rM4 receptors were frozen in assay ready vials (5×10^6 cells/vial) after bulking-up in culture. The day before an assay, vial(s) were thawed and cells seeded in 384 well white proxiplates at 1000/well for hM4 cells and at 2000/well for rM4 cells, in 10 μL of growth media (Hams/F12 with glutamax and 10% FCS) and incubated overnight at 37° C./5% CO2.
(§2) On the following morning, the growth media was removed by ‘flicking out’ over a bin, patting the inverted plate onto tissue, and then replacing with 10 μL of wash media (Hams/F12 with glutamax and 8 mM HEPES, NB: serum free). Then, the wash media was removed in the same way and replaced with 8 μL/well of the serum free media. Plates were then re-incubated for a further 4 hours at 37° C./5% CO2.
(§3) Compounds for testing were solubilized to 10 mM in DMSO and compound addition plates, consisting of ten-point concentration response curves (CRC) in duplicate points (10 μM top concentration, […]), were prepared by acoustic dispensing and the compound management group.
(§4) After the 4-hour incubation in serum free media, a 4 μL aliquot of the 3× compound solution containing an EC20 of acetylcholine (10 nM final concentration) was added to the cell plate using a 384 well plate to plate transfer. Then, the plate lid was replaced, and the cells incubated for 5 mins at 37° C./5% CO2. Following this final incubation, all cellular processes were stopped by the addition of 4 μL/well of lysis and blocking buffer and plates were incubated for 30 minutes at RT on an orbital shaker (gentle setting). Then, a final addition of 4 μL/well of antibody detection mix, containing both the Europium-Cryptate (donor) and d2 (acceptor) tagged detection components, was added followed by a further 2-hour incubation at RT, and then the plate was read using a TR-FRET (time resolved fluorescence resonance energy transfer) based protocol.

rM4 receptors = target: T2, rM4 receptors (Rattus norvegicus, UniProt P08485); assay: Rat M4 PAM pERK assay; assay type: cell-based; conditions: PAM mode
T2 construct: expressed in transfected cells; host or cells: CHO cells
T2 sequence (P08485 1-478): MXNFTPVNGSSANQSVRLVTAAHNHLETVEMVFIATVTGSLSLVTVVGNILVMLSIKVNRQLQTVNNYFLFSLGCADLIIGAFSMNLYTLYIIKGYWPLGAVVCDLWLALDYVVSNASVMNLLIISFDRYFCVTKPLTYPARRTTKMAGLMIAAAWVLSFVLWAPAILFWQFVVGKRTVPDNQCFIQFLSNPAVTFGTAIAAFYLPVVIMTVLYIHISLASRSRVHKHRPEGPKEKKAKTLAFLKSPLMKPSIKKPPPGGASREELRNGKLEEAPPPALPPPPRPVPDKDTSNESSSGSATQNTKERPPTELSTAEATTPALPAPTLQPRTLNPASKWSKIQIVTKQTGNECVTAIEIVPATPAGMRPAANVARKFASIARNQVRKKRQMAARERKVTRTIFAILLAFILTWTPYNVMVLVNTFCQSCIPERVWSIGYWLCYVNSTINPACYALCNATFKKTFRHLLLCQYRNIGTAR
Description: as §1, §2, §3, §4

human M4 receptor = target: T3, human M4 receptor (Homo sapiens, UniProt P08173); assay: M4 GTPγS PAM assay; assay type: biochemical; conditions: CHO-K1 membranes expressing human M4, with EC20 acetylcholine (40 nM)
T3 construct: expressed in transfected cells
T3 sequence (P08173 1-479): T1 sequence (P08173 1-479)
Description: The M4 GTPγS PAM method was used. Membranes were prepared for GTPgS binding assays from CHO-K1 cells stably expressing human M4 receptor. Briefly, cells were grown in 5-layer cell culture flasks. Cells were washed with 50 mL of PBS and then dissociated with 0.05% trypsin. Dissociated cells were then collected by centrifugation at 650×g for 8 minutes at 4° C. Pellets were washed again in PBS by centrifugation and resuspended in 30 mL of 20 mM HEPES, 10 mM EDTA, pH 7.4. After sitting on ice for 30 min, membranes were collected by centrifugation at 50000×g for 15′ at 4° C., resuspended in 30 mL of 20 mM HEPES, 0.1 mM EDTA, pH 7.4 and collected again by centrifugation. Pellets were then washed twice by centrifugation in 30 mL of 20 mM HEPES, pH 7.4, and stored at −80° C. until the day of the assay. On the day of the assay, pellets were thawed on ice and resuspended in 1 mL of 20 mM HEPES, pH 7.4, 10 mM MgCl2, 100 mM NaCl using dounce homogenization. Membrane protein concentration is determined by BCA protein assay (Promega, Madison, WI) according to Promega guidelines.
On the day of the assay, serial dilutions of test PAM compounds were brought up in assay buffer (20 mM HEPES, 10 mM MgCl2, 100 mM NaCl) at 4× final assay concentration. […] of membrane homogenates (containing […] of membrane protein) were prepared in assay buffer supplemented with GDP at 4× final assay concentration (final assay concentration of GDP is 5 uM for M2 and 0.1 uM for M4) and dispensed into 96 well polypropylene, U-bottom Greiner plates. […] of vehicle or test PAM compound at 4× of final assay concentration diluted in the assay buffer were added to membrane and plates are incubated for 10-15 minutes at room temperature with gentle shaking. Then, […] of EC20 acetylcholine in assay buffer at 4× final assay concentration was added to assay plates (EC20 final assay concentrations was 40 nM for human M4).
Plates were then incubated, with shaking, for an additional 10-15 minutes. 25 mL of 0.4 nM ^35S-GTP (Perkin Elmer, Waltham, MA) in assay buffer was added to assay mixtures. The binding reaction is left on the shaker for 1 hour at room temperature. Membranes in assay reactions were then transferred to GF/C filter plates (Unifilter, Perkin Elmer) and washed three times using a FilterMate Harvester (Perkin Elmer) with cold assay buffer containing no GDP. Filter plates were then dried at 40° C. overnight followed by the addition of […] of Beta Plate Scintillation liquid. Plates are top and bottom sealed before being read on TopCount scintillation counter (Perkin Elmer, Waltham, MA).

SMILES | EC50 (hM4 receptors) | EC50 (rM4 receptors) | EC50 (human M4 receptor)
Cc1cc(=O)n(C)c2c1C(C)N(C(=O)c1cnc(C3CC3)s1)C2 (single isomer, unassigned) [Compound I-97] | 100 to 500 nM | > 2000 nM | > 2000 nM
Cc1cc(=O)n(C)c2c1C(C)N(C(=O)c1ccc3nc(C4CC4)sc3c1)C2 (single isomer, unassigned) [Compound I-98] | > 2000 nM | > 2000 nM | > 2000 nM
Cc1c2c(n(C)c(=O)c1Cl)C(C)N(C(=O)c1cnn(C(F)(F)F)c1)C2 (single isomer, unassigned) [Compound I-108, 3-Chloro-1,4,7-trimethyl-6-(1-(trifluoromethyl)-1H-pyrazole-4-carbonyl)-1,5,6,7-tetrahydro-2H-pyrrolo[3,4-b]pyridin-2-one] | 500 to 2000 nM | > 2000 nM | > 2000 nM
Cc1c2c(n(C)c(=O)c1Cl)CN(C(=O)c1ccn(C)n1)C2 [Compound I-3] | 500 to 2000 nM | > 2000 nM | > 2000 nM
Cc1c2c(n(C)c(=O)c1Cl)CN(C(=O)c1cc(C3CC3)on1)C2 [Compound I-6] | 100 to 500 nM | > 2000 nM | > 2000 nM
Cc1ncc(C(=O)N2Cc3c(C)c(Cl)c(=O)n(C)c3C2)s1 [Compound I-9] | < 100 nM | 500 to 2000 nM | 500 to 2000 nM
Cc1c2c(n(C)c(=O)c1Cl)CN(C(=O)c1cn(C(C)C)cn1)C2 [Compound I-14] | 500 to 2000 nM | > 2000 nM | > 2000 nM
Cc1c2c(n(C)c(=O)c1Cl)CN(C(=O)c1cnc(C3CC3)s1)C2 [Compound I-21] | < 100 nM | 500 to 2000 nM | 100 to 500 nM
Cc1coc(C(=O)N2Cc3c(C)c(Cl)c(=O)n(C)c3C2)n1 [Compound I-22] | 100 to 500 nM | > 2000 nM | 500 to 2000 nM
Cc1c2c(n(C)c(=O)c1Cl)CN(C(=O)c1cn3c(n1)CCCC3)C2 [Compound I-24] | 500 to 2000 nM | > 2000 nM | > 2000 nM
Cc1c2c(n(C)c(=O)c1Cl)CN(C(=O)c1cnc(C(F)(F)F)s1)C2 [Compound I-29] | < 100 nM | 500 to 2000 nM | 500 to 2000 nM
Cc1c2c(n(C)c(=O)c1Cl)CN(C(=O)c1cc3n(n1)CCCC3)C2 [Compound I-32] | 100 to 500 nM | > 2000 nM | 500 to 2000 nM
Cc1c2c(n(C)c(=O)c1Cl)CN(C(=O)c1ccc(C(F)(F)F)cc1)C2 [Compound I-41] | 100 to 500 nM | 500 to 2000 nM | 100 to 500 nM
Cc1c2c(n(C)c(=O)c1Cl)CN(C(=O)c1ccc(C(F)(F)F)nc1)C2 [Compound I-44] | 100 to 500 nM | 500 to 2000 nM | < 100 nM
Cc1c2c(n(C)c(=O)c1Cl)CN(C(=O)c1ccc(C(F)(F)F)cn1)C2 [Compound I-45] | 100 to 500 nM | > 2000 nM | > 2000 nM

Results, then the compound that gave them:

EC50 (hM4 receptors) | EC50 (rM4 receptors) | EC50 (human M4 receptor) | SMILES
100 to 500 nM | 500 to 2000 nM | 500 to 2000 nM | Cc1cc(=O)n(C)c2c1C(C)N(C(=O)c1ccc3nc(C4CC4)sc3c1)C2 (single isomer, unassigned) [Compound I-99]
> 2000 nM | > 2000 nM | > 2000 nM | Cc1cc(=O)n(C)c2c1C(C)N(C(=O)c1ccc3nc(C(F)(F)F)sc3c1)C2 (single isomer, unassigned) [Compound I-100]
< 100 nM | > 2000 nM | > 2000 nM | Cc1c2c(n(C)c(=O)c1Cl)CN(C(=O)c1cc(C(F)(F)F)on1)C2 [Compound I-8]
100 to 500 nM | > 2000 nM | > 2000 nM | Cc1nc(C(=O)N2Cc3c(C)c(Cl)c(=O)n(C)c3C2)co1 [Compound I-12]
< 100 nM | 500 to 2000 nM | > 2000 nM | Cc1c2c(n(C)c(=O)c1Cl)CN(C(=O)c1cnn(C(F)F)c1)C2 [Compound I-17]
500 to 2000 nM | > 2000 nM | > 2000 nM | Cc1c2c(n(C)c(=O)c1Cl)CN(C(=O)c1cnc(C)n1C)C2 [Compound I-18]
500 to 2000 nM | > 2000 nM | > 2000 nM | Cc1c2c(n(C)c(=O)c1Cl)CN(C(=O)c1cn(CC(C)C)cn1)C2 [Compound I-19]
100 to 500 nM | > 2000 nM | > 2000 nM | Cc1c2c(n(C)c(=O)c1Cl)CN(C(=O)c1csc(C(F)(F)F)n1)C2 [Compound I-26]
< 100 nM | 500 to 2000 nM | 100 to 500 nM | Cc1c2c(n(C)c(=O)c1Cl)CN(C(=O)c1cnc(CC3CC3)s1)C2 [Compound I-28]
< 100 nM | 500 to 2000 nM | 500 to 2000 nM | Cc1c2c(n(C)c(=O)c1Cl)CN(C(=O)c1cnc(C(F)F)s1)C2 [Compound I-36]
500 to 2000 nM | > 2000 nM | > 2000 nM | Cc1c2c(n(C)c(=O)c1Cl)CN(C(=O)c1cccc(C(F)(F)F)c1)C2 [Compound I-40]
500 to 2000 nM | > 2000 nM | > 2000 nM | Cc1c2c(n(C)c(=O)c1Cl)CN(C(=O)c1ccnc(C(F)(F)F)c1)C2 [Compound I-42]
100 to 500 nM | 500 to 2000 nM | 500 to 2000 nM | Cc1c2c(n(C)c(=O)c1Cl)CN(C(=O)c1ccc3nc(C(F)(F)F)sc3c1)C2 [Compound I-49]
100 to 500 nM | 100 to 500 nM | 500 to 2000 nM | Cc1c2c(n(C)c(=O)c1Cl)CN(C(=O)c1ccc3nc(C4CC4)sc3c1)C2 [Compound I-52, 3-Chloro-6-(2-cyclopropylbenzo[d]thiazole-6-carbonyl)-1,4-dimethyl-1,5,6,7-tetrahydro-2H-pyrrolo[3,4-b]pyridin-2-one]
